# Measurements: US8987502B2, “Oleanolic acid amidate derivatives, preparation methods and uses thereof” (Hangzhou Bensheng Pharmaceutical Co., Ltd., priority 2011, dated 2015)
# Assays:
# RPMI8226 = assay: MTT multiple myeloma cell proliferation inhibition, RPMI8226; assay type: cell-based; settings: Homo sapiens, RPMI-8226; for inhibition at 16 µg/mL: RPMI8226, 16 μg/mL compound, 72 h, read-out: IR (inhibition rate); for IC50: RPMI8226, 72 h, MTT
# Description: Multiple myeloma cell lines: RPMI8226 (multiple myeloma), purchased from Fuxiang Bio-tech Co. Ltd., Shanghai, China.
# (§1) Obtaining 6000 well-growing leukemia cells and inoculating them into wells of a 96-well cell culture plate. The culture medium is the 1640 cell culture medium containing 10% fetal bovine serum. After adding the amidated oleanolic acid derivatives of different concentrations and mixing uniformly, placing the plate in a carbon dioxide cell incubator (5% CO2) at 37° C. and incubated for 72 hours. Then the relative number of viable cells is determined by the MTT method. In this experiment, the cell proliferation inhibition rate in control group (not treated with any compound) is set as 0%.
# Becap37 = assay: MTT solid tumor cell proliferation inhibition, Becap37; assay type: cell-based; settings: Homo sapiens; for inhibition at 16 µg/mL: Becap37, 16 μg/mL compound, 72 h, read-out: IR (inhibition rate); for IC50: Becap37, 72 h, MTT
# Description: (§2) Human solid tumor cell lines: Hep-2 (laryngeal carcinoma), A549 (human lung cancer), CaES-17 (esophageal cancer cell), PC-3 (prostate cancer), CNE (nasopharyngeal carcinoma cell), and SK-OV-3 (ovarian cancer cell), all of which are purchased from China Center For Type Culture Collection; RKO (human colon adenocarcinoma cell), MGC 803 (human gastric cancer cell), MG63 (osteosarcoma) and U87 MG (malignant glioma cell), all of which are purchased from Fuxiang Bio-tech Co. Ltd., Shanghai, China; PANC-1 (pancreatic cancer), Hep G2 (human liver cancer cell), Becap37 (human breast cancer cell), and Hela (human cervical cancer cell), all of which are donated by Cancer Research Institute of Zhejiang University, China.
# (§3) Obtaining 4000 well-growing human solid tumor cells and inoculating them into wells of a 96-well cell culture plate. The culture medium is DMEM High Glucose cell culture medium containing 10% fetal bovine serum. The plate is placed in a carbon dioxide cell incubator (5% CO2) at 37° C. for 24 hours for incubation. After being added with the amidated oleanolic acid derivatives of different concentrations and mixed uniformly, the plate is placed in a carbon dioxide cell incubator (5% CO2) at 37° C. for 72 hours for incubation. Then the relative number of the living cells is determined by the MTT method. In this experiment, the cell proliferation inhibition rate in control group (not treated with any compound) is set as 0%.
# Hela = assay: MTT solid tumor cell proliferation inhibition, Hela; assay type: cell-based, human; settings: Homo sapiens, Hela, 72 h; for inhibition at 16 µg/mL: 16 μg/mL compound, read-out: IR (inhibition rate); for IC50: MTT
# Description: as §2, §3
# A549 = assay: MTT solid tumor cell proliferation inhibition, A549; assay type: cell-based, human; settings: Homo sapiens; for inhibition at 16 µg/mL: A549, 16 μg/mL compound, 72 h, read-out: IR (inhibition rate); for IC50: A549, 72 h, MTT
# Description: as §2, §3
# CaES-17 = assay: MTT solid tumor cell proliferation inhibition, CaES-17; assay type: cell-based, human; settings: Homo sapiens, CaEs17; for inhibition at 16 µg/mL: CaES-17, 16 μg/mL compound, 72 h, read-out: IR (inhibition rate); for IC50: CaES-17, 72 h, MTT
# Description: as §2, §3
# SK-OV-3 = assay: MTT solid tumor cell proliferation inhibition, SK-OV-3; assay type: cell-based, human; settings: Homo sapiens; for inhibition at 16 µg/mL: SK-OV-3, 16 μg/mL compound, 72 h, read-out: IR (inhibition rate); for IC50: SK-OV-3, 72 h, MTT
# Description: as §2, §3
# PANC-1 = assay: MTT solid tumor cell proliferation inhibition, PANC-1; assay type: cell-based, human; settings: Homo sapiens; for inhibition at 16 µg/mL: PANC-1, 16 μg/mL compound, 72 h, read-out: IR (inhibition rate); for IC50: PANC-1, 72 h, MTT
# Description: as §2, §3
# Hep G2 = assay: MTT solid tumor cell proliferation inhibition, Hep G2; assay type: cell-based; settings: Homo sapiens, HepG2; for inhibition at 16 µg/mL: Hep G2, 16 μg/mL compound, 72 h, read-out: IR (inhibition rate); for IC50: Hep G2, 72 h, MTT
# Description: as §2, §3
# H9 = assay: MTT leukemia cell proliferation inhibition, H9; assay type: cell-based, human; settings: Homo sapiens; for inhibition at 16 µg/mL: H9, 16 μg/mL compound, 72 h, read-out: IR (inhibition rate); for IC50: H9, 72 h, MTT
# Text: (§4) Leukemia cell lines: leukemia cell lines: K562/adr (drug-resistant, chronic myeloid leukemia, CML), NB4 (acute promyelocytic leukemia, AML), Kasumi-1 (acute myeloid leukemia M2 type, AML-M2), Jurkat (acute lymphoblastic leukemia, ALL), all of which are donated by Cancer Research Institute of Zhejiang University, China; and H9 (acute lymphoblastic leukemia, ALL), which is purchased from China Center for Type Culture Collection (CCTCC).
# (§5) Reagents: The standard sample of oleanolic acid (OA) is purchased from Hua Kang Pharmaceutical Raw Material Factory, Shifang City, Sichuan, China; and the amidated oleanolic acid derivatives are prepared according to the present invention.
# as §1
# Jurkat = assay: MTT leukemia cell proliferation inhibition, Jurkat; assay type: cell-based; settings: Homo sapiens, 72 h; for inhibition at 16 µg/mL: 16 μg/mL compound, read-out: IR (inhibition rate); for IC50: MTT
# Text: as §4, §5, §1
# Kasumi-1 = assay: MTT leukemia cell proliferation inhibition, Kasumi-1; assay type: cell-based; settings: Homo sapiens; for inhibition at 16 µg/mL: Kasumi-1, 16 μg/mL compound, 72 h, read-out: IR (inhibition rate); for IC50: Kasumi-1, 72 h, MTT
# Text: as §4, §5, §1
# NB4 = assay: MTT leukemia cell proliferation inhibition, NB4; assay type: cell-based; settings: Homo sapiens, NB-4; for inhibition at 16 µg/mL: NB4, 16 μg/mL compound, 72 h, read-out: IR (inhibition rate); for IC50: NB4, 72 h, MTT
# Text: as §4, §5, §1
# MGC803 = assay: MTT solid tumor cell proliferation inhibition, MGC803; assay type: cell-based, human; settings: Homo sapiens, MGC-803; for inhibition at 16 µg/mL: MGC803, 16 μg/mL compound, 72 h, read-out: IR (inhibition rate); for IC50: MGC803, 72 h, MTT
# Description: as §2, §3
# U87 MG = assay: MTT solid tumor cell proliferation inhibition, U87 MG; assay type: cell-based, human; settings: Homo sapiens, U-87 MG, U87 MG, 72 h; for inhibition at 16 µg/mL: 16 μg/mL compound, read-out: IR (inhibition rate); for IC50: MTT
# Description: as §2, §3
# PC-3 = assay: MTT solid tumor cell proliferation inhibition, PC-3; assay type: cell-based, human; settings: Homo sapiens; for inhibition at 16 µg/mL: PC-3, 16 μg/mL compound, 72 h, read-out: IR (inhibition rate); for IC50: PC-3, 72 h, MTT
# Description: as §2, §3
# MG 63 = assay: MTT solid tumor cell proliferation inhibition, MG 63; assay type: cell-based, human; settings: for IC50: Homo sapiens, MG 63, 72 h, MTT; for IR (inhibition rate): MG 63, 16 μg/mL compound, 72 h
# Description: as §2, §3
# K562/adr = assay: MTT leukemia cell proliferation inhibition, K562/adr; assay type: cell-based; settings: Homo sapiens, 72 h; for inhibition at 16 µg/mL: 16 μg/mL compound, read-out: IR (inhibition rate); for IC50: MTT
# Text: as §4, §5, §1
# CNE = assay: MTT solid tumor cell proliferation inhibition, CNE; assay type: cell-based, human; settings: Homo sapiens, CNE, 72 h; for inhibition at 16 µg/mL: 16 μg/mL compound, read-out: IR (inhibition rate); for IC50: MTT
# Description: as §2, §3
# RKO = assay: MTT solid tumor cell proliferation inhibition, RKO; assay type: cell-based; settings: Homo sapiens, 72 h; for inhibition at 16 µg/mL: 16 μg/mL compound, read-out: IR (inhibition rate); for IC50: MTT
# Description: as §2, §3
# Hep-2 = assay: MTT solid tumor cell proliferation inhibition, Hep-2; assay type: cell-based, human; settings: Homo sapiens; for inhibition at 16 µg/mL: Hep-2, 16 μg/mL compound, 72 h, read-out: IR (inhibition rate); for IC50: Hep-2, 72 h, MTT
# Description: as §2, §3
SMILES,inhibition at 16 µg/mL (RPMI8226) [%],IC50 (RPMI8226) [µg/mL],inhibition at 16 µg/mL (Becap37) [%],IC50 (Becap37) [µg/mL],inhibition at 16 µg/mL (Hela) [%],IC50 (Hela) [µg/mL],inhibition at 16 µg/mL (A549) [%],IC50 (A549) [µg/mL],inhibition at 16 µg/mL (CaES-17) [%],IC50 (CaES-17) [µg/mL],inhibition at 16 µg/mL (SK-OV-3) [%],IC50 (SK-OV-3) [µg/mL],inhibition at 16 µg/mL (PANC-1) [%],IC50 (PANC-1) [µg/mL],inhibition at 16 µg/mL (Hep G2) [%],IC50 (Hep G2) [µg/mL],inhibition at 16 µg/mL (H9) [%],IC50 (H9) [µg/mL],inhibition at 16 µg/mL (Jurkat) [%],IC50 (Jurkat) [µg/mL],further results
CC1(C)CC[C@]2(NC(=O)c3ccccc3)CC[C@]3(C)C(=CC[C@@H]4[C@@]5(C)CC[C@H](O)C(C)(C)[C@@H]5CC[C@]43C)[C@@H]2C1 [BS-OA-101],97.5,6.49,18.1,> 16,57,15.8,37.6,> 16,25.8,> 16,39.7,> 16,20.6,> 16,16.1,> 16,58.7,14,30,> 16,inhibition at 16 µg/mL (Kasumi-1): 53.8%; IC50 (Kasumi-1): 15.4 µg/mL; inhibition at 16 µg/mL (NB4): 96.1%; IC50 (NB4): 8.2 µg/mL; inhibition at 16 µg/mL (MGC803): 33.2%; IC50 (MGC803): > 16 µg/mL; inhibition at 16 µg/mL (U87 MG): 36.4%; IC50 (U87 MG): > 16 µg/mL; inhibition at 16 µg/mL (PC-3): 45.7%; IC50 (PC-3): 19.9 µg/mL; IC50 (MG 63): > 16 µg/mL; IR (inhibition rate) (MG 63): 17.3%; inhibition at 16 µg/mL (K562/adr): 88.7%; IC50 (K562/adr): 6.29 µg/mL; inhibition at 16 µg/mL (CNE): 36.2%; IC50 (CNE): > 16 µg/mL; inhibition at 16 µg/mL (RKO): 22.5%; IC50 (RKO): > 16 µg/mL; inhibition at 16 µg/mL (Hep-2): 7.5%; IC50 (Hep-2): > 16 µg/mL
COc1cccc(C(=O)N[C@]23CCC(C)(C)C[C@H]2C2=CC[C@@H]4[C@@]5(C)CC[C@H](O)C(C)(C)[C@@H]5CC[C@@]4(C)[C@]2(C)CC3)c1 [BS-OA-103],90.2,9.63,4.6,> 16,38.4,> 16,29.8,> 16,-5.9,> 16,17.2,> 16,33.7,> 16,8,> 16,34.1,> 16,-2.5,> 16,inhibition at 16 µg/mL (Kasumi-1): 19.9%; IC50 (Kasumi-1): > 16 µg/mL; inhibition at 16 µg/mL (NB4): 48.5%; IC50 (NB4): 16 µg/mL; inhibition at 16 µg/mL (MGC803): 7%; IC50 (MGC803): > 16 µg/mL; inhibition at 16 µg/mL (U87 MG): 3.7%; IC50 (U87 MG): > 16 µg/mL; inhibition at 16 µg/mL (PC-3): 24.5%; IC50 (PC-3): > 16 µg/mL; IC50 (MG 63): > 16 µg/mL; IR (inhibition rate) (MG 63): −25.4%; inhibition at 16 µg/mL (K562/adr): 87.3%; IC50 (K562/adr): 5.7 µg/mL; inhibition at 16 µg/mL (CNE): 26%; IC50 (CNE): > 16 µg/mL; inhibition at 16 µg/mL (RKO): -11.7%; IC50 (RKO): > 16 µg/mL; inhibition at 16 µg/mL (Hep-2): 10.6%; IC50 (Hep-2): > 16 µg/mL
"CC1(C)CC[C@]2(C(=O)O)CC[C@]3(C)C(=CC[C@@H]4[C@@]5(C)CC[C@H](O)C(C)(C)[C@@H]5CC[C@]43C)[C@@H]2C1 [OA, Oleanolic acid]",2.2,> 16,23.4,> 16,22.9,> 16,5,> 16,27.4,> 16,8.3,> 16,8.5,> 16,-18.5,> 16,22.8,> 16,9.4,> 16,inhibition at 16 µg/mL (Kasumi-1): 17.2%; IC50 (Kasumi-1): > 16 µg/mL; inhibition at 16 µg/mL (NB4): 17.2%; IC50 (NB4): > 16 µg/mL; inhibition at 16 µg/mL (MGC803): 19.7%; IC50 (MGC803): > 16 µg/mL; inhibition at 16 µg/mL (U87 MG): 21.8%; IC50 (U87 MG): > 16 µg/mL; inhibition at 16 µg/mL (PC-3): 29.1%; IC50 (PC-3): > 16 µg/mL; IC50 (MG 63): > 16 µg/mL; IR (inhibition rate) (MG 63): 29.2%; inhibition at 16 µg/mL (K562/adr): 26.5%; IC50 (K562/adr): > 16 µg/mL; inhibition at 16 µg/mL (CNE): 33.9%; IC50 (CNE): > 16 µg/mL; inhibition at 16 µg/mL (RKO): 14.3%; IC50 (RKO): > 16 µg/mL; inhibition at 16 µg/mL (Hep-2): 9.8%; IC50 (Hep-2): > 16 µg/mL
